Among the data in patent US11286243B2 (GLOBAL BLOOD THERAPEUTICS, INC., priority 2018, dated 2022) are pEC50 values, retold here.

Molecules are shown by their SMILES. Where only a bound is given, the exact number is not on record here.

In this assay the target is T1, human ferroportin (Homo sapiens, UniProt Q9NP59).
T1 construct: luciferase reporter (probably NanoLuc: read with the Nano-Glo Luciferase Assay System); expressed in transfected cells; host or cells: CHO cells, stably transfected, doxycycline-inducible expression
T1 sequence (Q9NP59 1-571): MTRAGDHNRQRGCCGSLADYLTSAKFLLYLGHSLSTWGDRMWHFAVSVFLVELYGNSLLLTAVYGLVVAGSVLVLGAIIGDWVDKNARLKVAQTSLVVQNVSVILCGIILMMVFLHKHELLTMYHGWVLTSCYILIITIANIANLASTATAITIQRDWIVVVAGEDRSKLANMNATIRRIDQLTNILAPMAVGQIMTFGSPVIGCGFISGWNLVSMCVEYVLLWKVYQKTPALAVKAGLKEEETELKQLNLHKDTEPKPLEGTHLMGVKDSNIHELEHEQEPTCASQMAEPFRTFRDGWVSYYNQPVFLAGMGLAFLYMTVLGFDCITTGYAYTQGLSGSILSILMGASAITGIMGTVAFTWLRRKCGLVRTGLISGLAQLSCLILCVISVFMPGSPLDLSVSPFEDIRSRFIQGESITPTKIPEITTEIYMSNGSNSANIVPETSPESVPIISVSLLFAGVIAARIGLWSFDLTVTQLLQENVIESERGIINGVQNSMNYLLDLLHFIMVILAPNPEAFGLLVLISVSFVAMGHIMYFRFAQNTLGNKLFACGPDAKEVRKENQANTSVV
The assay is described as follows: In-vitro ferroportin internalization assay (luciferase reporter). The assay is classed as cell-based. The note with it: average pEC50; stably-transfected CHO cell line expressing human ferroportin tagged to a luciferase reporter; 6 h incubation with test compounds. The procedure, abridged: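 CHO cells stably expressing human ferroportin fused to a luciferase reporter were plated 24 h with ferric ammonium citrate, then induced with doxycycline for 24 h. Compounds in DMSO were incubated with cells for 6 h before luciferase readout by Nano-Glo. Results are reported as average pEC50.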
(In general: In a reporter assay the amount or activity of a reporter protein is the signal.)
In the case of `O=C(NCc1ccc2[nH]c(CCNCCc3nc4c(NCc5ncccc5F)ncnc4s3)nc2c1)c1ccc2c(c1)C1(OC2=O)c2ccc(O)cc2Oc2cc(O)ccc21` [Compound 80], the negative-log EC50 (pEC50) (in general, −log10 of the EC50, conventionally taken in molar units) is below 5.

Compound `Fc1cccnc1CNc1nccc2oc(C(F)(F)CNCCc3nc4ccccc4[nH]3)nc12` [Compound 81, 2-(2-{[2-(1H-1,3-benzodiazol-2-yl)ethyl]amino}-1,1-difluoroethyl)-N-[(3-fluoropyridin-2-yl)methyl]-[1,3]oxazolo[4,5-c]pyridin-4-amine] gave a negative logarithm of the EC50 (pEC50) of 6.3. Under `Fc1cccnc1CNc1nccc2sc([C@H](F)CNCCc3nc4ccccc4[nH]3)nc12` [Compound 82, 2-[(1R)-2-{[2-(1H-1,3-benzodiazol-2-yl)ethyl]amino}-1-fluoroethyl]-N-[(3-fluoropyridin-2-yl)methyl]-[1,3]thiazolo[4,5-c]pyridin-4-amine] stands 6.4; under `Oc1nc(NCc2ncccc2F)c2nc([C@H](F)CNCCc3nc4ccccc4[nH]3)sc2n1` [Compound 83, 2-[(1R)-2-{[2-(1H-1,3-benzodiazol-2-yl)ethyl]amino}-1-fluoroethyl]-7-{[(3-fluoropyridin-2-yl)methyl]amino}-[1,3]thiazolo[5,4-d]pyrimidin-5-ol], 7.1.
